Columns and labels:
wild-type SHIP = experiment: Scintillation proximity assay, wild-type SHIP; type: binding; settings: SPA beads
Procedure: (§1) Compound 100 was radiolabelled with tritium by GE Healthcare (Piscataway, N.J.) to a specific activity of 42 Ci/mmole. Copper chelate (His-Tag) YSi SPA Scintillation Beads (GE ealthcare, Piscataway, N.J.) were diluted in 0.25% BSA/TBS to 1.5 mg/mL and recombinant, His6-tagged protein added at the indicated concentrations: wild-type (1 pM), ΔC2 SHIP enzyme (1 pM) or C2 domain (10 nM). Protein was allowed to bind 1 h at 23° C., and 250 μg of beads were aliquoted per well of a 96-well plate. 5 μCi of [^3H]-Compound 100 was added per well, the plate gently agitated for 30 min and the amount of bead associated radioactivity quantified by counting in a Wallac BetaPlate plate scintillation counter.
(§2) Isolated recombinant, His6-tagged C2 domain was expressed and its PI-3,4-P2 binding ability was determined using protein lipid overlay assays. Purified C2 domain was incubated with membrane strips spotted with PI-3,4-P2 and bound protein detected using an anti-His6 antibody. As shown in FIG. 11C the C2 domain bound PI-3,4-P2 and this binding was inhibited by Compound 100, consistent with both Compound 100 and PI-3,4-P2 interacting with the C2 domain at a common binding site.

ΔC2 SHIP [1] = target: T1, ΔC2 SHIP (Homo sapiens, UniProt Q92835, DEL725-863); experiment: Scintillation proximity assay, SHIP lacking its C2 domain; type: binding; settings: SPA beads
T1 construct: His6; made in house; host or cells: mammalian expression vector pME18S
T1 sequence (Q92835 with tags, fused parts or gaps DEL725-863): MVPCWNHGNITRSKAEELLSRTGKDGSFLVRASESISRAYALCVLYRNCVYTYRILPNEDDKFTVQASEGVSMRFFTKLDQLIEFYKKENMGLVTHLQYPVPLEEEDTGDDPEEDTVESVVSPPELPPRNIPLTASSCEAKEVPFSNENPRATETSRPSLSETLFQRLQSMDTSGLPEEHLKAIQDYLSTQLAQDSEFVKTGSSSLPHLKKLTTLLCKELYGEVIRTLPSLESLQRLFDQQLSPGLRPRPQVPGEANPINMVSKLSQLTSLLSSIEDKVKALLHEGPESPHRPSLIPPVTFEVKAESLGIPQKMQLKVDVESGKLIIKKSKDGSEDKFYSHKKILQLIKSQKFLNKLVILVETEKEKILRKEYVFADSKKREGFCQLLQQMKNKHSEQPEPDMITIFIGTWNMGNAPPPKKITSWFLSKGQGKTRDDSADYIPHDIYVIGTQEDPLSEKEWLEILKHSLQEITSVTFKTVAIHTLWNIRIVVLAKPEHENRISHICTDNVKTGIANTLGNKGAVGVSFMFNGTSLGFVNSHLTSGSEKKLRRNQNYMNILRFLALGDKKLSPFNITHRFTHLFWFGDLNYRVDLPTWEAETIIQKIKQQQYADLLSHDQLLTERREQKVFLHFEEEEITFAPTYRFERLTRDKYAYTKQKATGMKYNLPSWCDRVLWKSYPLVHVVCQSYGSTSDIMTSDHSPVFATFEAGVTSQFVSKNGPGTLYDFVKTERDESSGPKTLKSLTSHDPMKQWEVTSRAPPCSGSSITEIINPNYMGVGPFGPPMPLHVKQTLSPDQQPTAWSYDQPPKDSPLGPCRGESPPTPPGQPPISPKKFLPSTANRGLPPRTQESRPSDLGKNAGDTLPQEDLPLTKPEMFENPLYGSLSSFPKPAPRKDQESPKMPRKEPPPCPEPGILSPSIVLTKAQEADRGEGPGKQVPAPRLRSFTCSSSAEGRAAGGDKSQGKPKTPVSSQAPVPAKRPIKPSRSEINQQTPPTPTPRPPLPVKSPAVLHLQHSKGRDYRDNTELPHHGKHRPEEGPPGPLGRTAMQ
Procedure: as §1, §2

[2] = test system: 100 protein kinase and phosphatase targets; experiment: Profiling against 100 protein kinase and phosphatase targets (SignalChem); type: biochemical; settings: 2 μM final concentration; changes <25% not considered significant
Procedure: Compound profiling activity was undertaken using 100 protein kinase and phosphatase targets by SignalChem (Richmond, BC, Canada. www.signalchem.com) against compound Compound 100 (2 μM final concentration). Protein kinase assays were performed in the presence of 50 μM ATP at 30° C. for 15 min. Protein phosphatase activites were determined using pNPP as substrate and were also performed at 37° C. for 15 min. The activity of the enzymes in the presence of Compound 100 was compared to that in the vehicle control and expressed as a % change in activity relative to that observed in the vehicle control. Changes in activity of <25% were not considered significant. Enzymes affected by Compound 100 are plotted in an expanded graph in FIG. 12B.

ΔC2 SHIP [3] = target: T1, ΔC2 SHIP; experiment: SHIP enzyme assay with C2 domain deleted SHIP; type: biochemical; settings: PI-3,4-P2 20 μM, Compound 100 3 μM, 30 μM IP4
Description: A His6 tagged SHIP ΔC2 domain deletion mutant (deleting residues 725 to 863) in the mammalian expression vector pME18S was generated by a standard PCR-based methodology. An N-terminal His6 C2 domain construct was also generated by PCR inserted into the pET28C bacterial expression vector using EcoRI and NdeI restriction sites.
The allosteric regulation of enzymes has remained under-appreciated primarily because allosteric effectors are not easy to find. The molecular mechanism by which Compound 100 activated SHIP was investigated, first by performing classical enzyme kinetic analysis of its phosphatase activity. Activity measurements were performed with substrate concentrations from 10-100 μM.
The SHIP protein contains a C2 domain located at the carboxyterminal end of its phosphatase domain. […] SHIP lacking its the C2 domain (ΔC2 SHIP) was prepared.

binding of [3H]-Compound 100 to wild-type SHIP (wild-type SHIP): bound to wild-type SHIP
binding of [3H]-Compound 100 to SHIP lacking its C2 domain (ΔC2 SHIP [1]): not to SHIP lacking its C2 domain
off-target effects on 100 other kinases and phosphatases [2]: minimal off-target effects
enhancement of ΔC2 SHIP activity (ΔC2 SHIP [3]): could not be enhanced
SMILES: Cc1cc(O)cc2c1[C@]1(C)CCC3C(C)(C)CCC[C@]3(C)[C@H]1C2 (stereo partly shown) [Compound 100]
